Read-outs that look alike come from different tables or passages of the source.
Assays:
[1] = system: boys with DMD; experiment: VBP15-LTE month 24 PODCI and wrist x-ray bone age; assay type: in vivo, human
Excerpt: In addition, 39/41 LTE participants had wrist x-ray at Month 24; the mean bone age to chronologic age difference was −1.1 (p<0.001, CI −1.5, −0.7), indicating possible skeletal maturation delay (Table 7).
PODCI is the Pediatrics Outcomes Data Collection Instrument (musculoskeletal disorders). The PODCI is a disease-specific questionnaire developed by the American Academy of Orthopedic Surgeons to measure general health and problems related to bone and muscle conditions in children. A significant increase in mean PODCI upper extremity and physical function standardized score was observed from LTE baseline to Month 24 (7.95±12.54, CI 1.003, 14.897, p=0.0278, n=15) for the combined 2.0 and 6.0 mg/kg/day initial dose group. At the same time, a non-significant decrease in mean PODCI transfer and basic mobility standardized score was observed (−4.38±22.68, CI −16.471, 7.703, p=0.451, n=16) (Table 7).

[2] = system: boys with DMD; experiment: VBP15-004 (VISION-DMD) Phase 2b efficacy at 24 weeks; assay type: in vivo, human
Excerpt: (§1) The second period of 24 weeks, where all participants receive vamorolone treatment on either of the two dose levels, will continue to capture additional longer-term safety and tolerability data.

[3] = VBP15-004 adverse events at 24 weeks; parameters: species or system human; conditions: in vivo
Excerpt: In certain embodiments, the symptom may be an adverse event of special interest (AESI). In this context, AESIs are prespecified based on pre-defined MedDRA search criteria for eleven AESI categories for the corticosteroid class and then further stratified into AESI of at least moderate severity. The symptoms for treating DMD with corticosteroids include, but is not limited to, behavior adverse events, blood glucose related problems, gastrointestinal symptoms, increased arterial blood pressure, immune suppression/infections, skin/hair changes, cataracts/glaucoma, cushingoid features, weight gain, bone fractures, slow growth.
as §1

[4] = system: osteocalcin, P1NP, CTX; experiment: VBP15-004 bone turnover biomarkers; assay type: in vivo, human
[5] = molecular target: T1, mineralocorticoid receptor (Homo sapiens, UniProt P08235); conditions: cited from earlier work
T1 sequence (P08235 1-984): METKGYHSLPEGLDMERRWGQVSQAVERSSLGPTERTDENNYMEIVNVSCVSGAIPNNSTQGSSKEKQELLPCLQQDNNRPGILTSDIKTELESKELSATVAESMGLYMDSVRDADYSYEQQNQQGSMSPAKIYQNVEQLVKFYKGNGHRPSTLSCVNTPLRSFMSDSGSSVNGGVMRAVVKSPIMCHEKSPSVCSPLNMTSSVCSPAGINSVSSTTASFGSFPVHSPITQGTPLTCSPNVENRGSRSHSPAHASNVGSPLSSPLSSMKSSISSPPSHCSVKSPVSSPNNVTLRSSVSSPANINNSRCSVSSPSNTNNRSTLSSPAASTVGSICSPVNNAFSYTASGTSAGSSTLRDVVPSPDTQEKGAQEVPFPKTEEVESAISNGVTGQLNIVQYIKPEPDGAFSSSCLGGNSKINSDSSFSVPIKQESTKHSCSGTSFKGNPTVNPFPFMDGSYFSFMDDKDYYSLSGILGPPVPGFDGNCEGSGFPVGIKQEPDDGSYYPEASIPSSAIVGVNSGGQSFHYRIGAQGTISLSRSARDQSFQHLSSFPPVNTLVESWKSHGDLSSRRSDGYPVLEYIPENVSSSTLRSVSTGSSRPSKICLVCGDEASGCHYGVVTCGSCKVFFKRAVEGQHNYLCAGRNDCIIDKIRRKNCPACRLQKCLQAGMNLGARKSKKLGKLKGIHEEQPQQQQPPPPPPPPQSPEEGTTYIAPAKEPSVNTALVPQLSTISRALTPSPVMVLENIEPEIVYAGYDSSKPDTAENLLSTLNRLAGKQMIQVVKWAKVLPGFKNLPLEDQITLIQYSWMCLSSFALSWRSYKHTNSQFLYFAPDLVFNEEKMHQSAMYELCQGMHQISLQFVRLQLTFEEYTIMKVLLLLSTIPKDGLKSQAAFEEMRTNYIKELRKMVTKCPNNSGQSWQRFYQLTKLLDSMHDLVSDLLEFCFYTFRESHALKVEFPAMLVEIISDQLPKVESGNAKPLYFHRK

C[C@@H]1C[C@H]2[C@@H]3CCC4=CC(=O)C=C[C@]4(C)C3=CC[C@]2(C)[C@@]1(O)C(=O)CO [Vamorolone, 17α,21-dihydroxy-16α-methylpregna-1,4,9(11)-triene-3,20-dione]
Bone Age by wrist x-ray, mean (SD) [1]: 6.8 (1.4), n = 39 yr | Bone Age difference to Chronologic Age, mean (SD) [1]: −1.1 (1.2), yr | Bone Age difference to Chronologic Age, mean (SD) ([1]; listed as vamorolone): −1.1 yr | 6MWT versus placebo ([2]; 2 mg/kg/day, 24 weeks, p=0.009): superiority | TTSTAND velocity versus placebo ([2]; 2 mg/kg/day, 24 weeks, p=0.02): superiority | TTSTAND ([2]; 6 mg/kg/day group, baseline): 6.0 s | efficacy endpoints versus prednisone ([2]; 6 mg/kg/day vs prednisone 0.75 mg/kg/day, 24 weeks): no statistically significant differences | TTRW versus placebo ([2]; 6 mg/kg/day, 24 weeks, p=0.002): superiority | 6MWT versus placebo ([2]; 6 mg/kg/day, 24 weeks, p=0.003): superiority | clinically relevant psychiatric events, subjects [3]: no vamorolone-treated subjects | Aggression, any severity, F ([3]; male, human, 24 weeks): 1 | Agitation, any severity, F ([3]; male, human, 24 weeks): 1 | Anxiety, any severity, F ([3]; male, human, 24 weeks): 1 | Any Behavior AESI, moderate/severe, F ([3]; male, human, 24 weeks): 1 | Irritability, any severity, F ([3]; male, human, 24 weeks): 3 | Mood altered, any severity, F ([3]; male, human, 24 weeks): 1 | Poor quality sleep, any severity, F ([3]; male, human, 24 weeks): 1 | Psychomotor hyperactivity, any severity, F ([3]; male, human, 24 weeks): 2 | Serious adverse events, F ([3]; male, human, 24 weeks): 1 | Skin laceration, any severity, F ([3]; male, human, 24 weeks): 1 | Skin laceration, moderate/severe, F ([3]; male, human, 24 weeks): 1 | Sleep disorder, any severity, F ([3]; male, human, 24 weeks): 1 | moderate/severe behavior problems, subjects ([3]; male, human, 24 weeks): 1.7% | Osteocalcin, mean (SEM) change at Week 24 ([4]; Vamorolone 2.0 mg): 8.3 (3.1) ng/ml | Procollagen 1 N-Terminal Propeptide (P1NP), mean (SEM) change at Week 24 ([4]; Vamorolone 2.0 mg): 48 (27) ng/mL | Type I Collagen C-Telopeptides (CTX), mean (SEM) change at Week 24 ([4]; Vamorolone 2.0 mg): 177 (52) pg/mL | Osteocalcin, difference vs. prednisone ([4]; Vamorolone 2.0 mg, Week 24): 23.5 ng/mL | Procollagen 1 N-Terminal Propeptide (P1NP), difference vs. prednisone ([4]; Vamorolone 2.0 mg, Week 24): 182 ng/mL | Type I Collagen C-Telopeptides (CTX), difference vs. prednisone ([4]; Vamorolone 2.0 mg, Week 24): 477 pg/mL | Osteocalcin, mean (SEM) change at Week 24 ([4]; Vamorolone 6.0 mg): 1.7 (2.8) ng/ml | Procollagen 1 N-Terminal Propeptide (P1NP), mean (SEM) change at Week 24 ([4]; Vamorolone 6.0 mg): −11 (22) ng/mL | Type I Collagen C-Telopeptides (CTX), mean (SEM) change at Week 24 ([4]; Vamorolone 6.0 mg): 90 (44) pg/mL | Osteocalcin, difference vs. prednisone ([4]; Vamorolone 6.0 mg, Week 24): 16.9 ng/mL | Procollagen 1 N-Terminal Propeptide (P1NP), difference vs. prednisone ([4]; Vamorolone 6.0 mg, Week 24): 124 ng/mL | Type I Collagen C-Telopeptides (CTX), difference vs. prednisone ([4]; Vamorolone 6.0 mg, Week 24): 390 pg/mL | effect on bone biomarkers (osteocalcin, PINP, CTX) ([4]; Week 24, vamorolone 2.0 and 6.0 mg/kg): did not decrease bone biomarkers | activity at the mineralocorticoid receptor [5]: potent antagonist
